How the values were obtained:
[1] = tested on: A549 alveolar epithelial cells; test: Apoptosis assay by flow cytometry (annexin V / propidium iodide) in A549 cells; type: cell-based, human; conditions: for apoptosis of alveolar epithelial cells: 10 μM peptide, 24 h
Procedure: (§1) The A549 and NHBE cells were cultured in DMEM supplemented with 10% fetal calf serum, 0.03% (w/v) L-glutamine, 100 IU/ml penicillin and 100 μg/ml streptomycin in a humidified, 5% CO2 atmosphere at 37° C. We used A549 cell lines in most experiments because they have higher potential growth and mimic the phenotype of alveolar type II cells more than primary NHBE cells (NPL82, NPL83); and in addition, these primary cells usually easily change phenotype or become senescent after a short period of culture.
(§2) A549 and NBHE cells (4×10^5 cells/well) were seeded into 12-well plates, cultured to sub-confluency, washed and then cultured in serum free medium containing 10% of each bacterial supernatant for 48 h. Non-inoculated hypersaline medium was used as control. The cells were analyzed for apoptosis by flow cytometry (FACScan, BD Biosciences, Oxford, UK) after staining with fluorescein-labelled annexin V and propidium iodide (FITC Annexin V Apoptosis Detection Kit with PI, Biolegend, San Diego, CA). Flow cytometry gating strategy used in the experiments is described in FIGS. 34A-34C. Under physiological conditions, phosphatidylcholine is exposed externally while phosphatidylserine (PS) is located on the inner surface of the lipid bilayer of cellular membranes. See NPL84. During apoptosis, PS is translocated from the cytoplasmic face of the plasma membrane to the cell surface. Id.

[2] = tested on: normal human bronchial epithelial (NHBE) cells; test: Western blotting of cleaved caspase-3 and Akt in NHBE cell lysates; type: cell-based
Procedure: Each treatment group had n=4. A representative blot of each treatment group is shown.
FIGS. 19D and 19E show the intensity of the Western blot membrane bands as quantified by densitometry using Image? software. Each treatment group had n=4. Bars indicate the means ±S.D. Statistical analysis was performed by one-tailed Mann-Whitney U test. *p<0.05.
The cells for Western blot analysis were washed twice with ice-cold phosphate-buffered saline and then lysed in radioimmunoprecipitation assay (RIPA) buffer (10 mM Tris-Cl (pH 8.0), 1 mM EDTA, 1% Triton X-100, 0.1% sodium deoxycholate, 0.1% SDS, 140 mM NaCl, 1 mM phenylmethylsulfonyl fluoride) supplemented with protease/phosphatase inhibitors (1 mM orthovandate, 50 mM β-glycerophosphate, 10 mM sodium pyrophosphate, 5 μg/mL leupeptin, 2 μg/mL aprotinin, 5 mM sodium fluoride). The suspensions were centrifuged (17,000 x g, 10 min at 4° C.), and the protein content was determined using Pierce BCA protein assay kit (Thermo Fisher Scientific Incorporation, Waltham, MA). Equal amounts of cellular lysate protein were mixed with Laemmli sample buffer and separated by SDS-PAGE. […] The intensity of the bands was quantified by densitometry using the public domain NIH imageJ program (Wayne Rasband, NIH, Research Service Branch).

TGFβ1 TG mice = test: Intratracheal instillation of corisin in TGFβ1 TG mice with lung fibrosis; type: in vivo, mouse; conditions: intratracheal once daily for two days, euthanasia day 3, vs control mice
Excerpt: To investigate whether corisin can exacerbate the lung fibrotic disease in vivo, we separated TGFβ1 TG mice into three groups with matched level of lung fibrosis (see FIGS. 25A and 25B) and treated them with saline, scrambled peptide or corisin by the intratracheal route once daily for two days before euthanasia on day 3 (see FIG. 6A).
Under profound anesthesia, we collected bronchoalveolar lavage fluid for biochemical analysis and cell counting. Briefly, bronchoalveolar lavage fluid was performed by cannulating the trachea with a 20-gauge needle and infusing saline solutions into the lungs in accordance with NPL68. The samples were centrifuged and the supernatants were stored at −80° C. until analysis. The cell pellets were re-suspended in physiological saline solution and the number of cells was counted. A nucleocounter from ChemoMetec (Allerød, Denmark) was used for cell counting and the cells were stained with May-Grünwald-Giemsa (Merck, Darmstadt, Germany) to count differential cells. Mice were sacrificed by anesthesia overdose, and the lungs were resected to fix in formalin, embedded in paraffin and prepared for hematoxylin and eosin staining. The severity of lung fibrosis was quantitated based on the Ashcroft criteria. See NPL67. The level of TGFβ1 was measured using a commercial enzyme immunoassay kit from BD Biosciences Pharmingen (San Diego, CA).
Three groups of TGFβ1 TG mice (each n=5 or n=4) with matched grade (level) of lung fibrosis as assessed by CT score underwent intratracheal instillation of corisin or scrambled peptide or 0.9% NaCl solution on days 1 and 2 and sacrificed on day 3 to evaluate changes in lung inflammation and fibrosis. WT mice (n=3) without lung fibrosis treated with 0.9% NaCl solution were used as controls.
Staining of terminal deoxynucleotidyl transferase dUTP Nick-End Labeling (TUNEL) was performed at the Biopathology Institute Corporation (Kunisaki, Oita, Japan) by using Alexa Fluor 594 goat anti-rabbit IgG and slow-fade gold-antifade reagent with 4′,6-diamidino-2-phenylindole (DAPI) or by using ApopTag terminal deoxynucleotidyl transferase (Merck Millipore, Burlington, MA), anti-digoxigenin-peroxidase and 3,3′-diaminobenzidine. Quantification of apoptotic areas was performed using the WinROOF software (Mitani Corporation, Tokyo, Japan) and the values were averaged for each individual mouse.

[3] = tested on: human umbilical vein endothelial cells; test: Apoptosis flow cytometry in vascular endothelial cells; type: cell-based; conditions: 10 μg/ml, 48 h
Procedure: FIGS. 21C and 21D show a flow cytometry analysis of human umbilical vein endothelial cells after culturing for 48 h in DMEM medium containing 10 μg/ml corisin. Each group had n=4.
as §2

human Jurkat T cells = test: Apoptosis flow cytometry in T cells; type: cell-based; conditions: 10 μg/ml, 48 h
Procedure: FIGS. 21E and 21F show a flow cytometry analysis of human Jurkat T cells after culturing for 48 h in DMEM medium containing 10 μg/ml corisin. Each treatment group had n=4. Bars indicate the means ±S.D. Statistical analysis was performed by ANOVA with Tukey's test.
as §2

[4] = tested on: normal human bronchial epithelial (NHBE) cells; test: Apoptosis assay by flow cytometry in normal human bronchial epithelial cells; type: cell-based; conditions: 10 μM, 48 h
Procedure: More specifically, FIGS. 19A-19B show a flow cytometry analysis of normal human bronchial epithelial (NHBE) cells after culturing for 48 h in DMEM medium containing 10 μM of corisin or of its scrambled sequence. Each treatment group had n=4. Bars indicate the means ±S.D. Statistical analysis by ANOVA with Tukey's test. *p<0.001.
as §1
A549 and NBHE cells (4×10^5 cells/well) were seeded into 12-well plates, cultured to sub-confluency, washed and then cultured in serum free medium containing 10% of each bacterial supernatant for 48 h. Non-inoculated hypersaline medium was used as control. The cells were analyzed for apoptosis by flow cytometry (FACScan, BD Biosciences, Oxford, UK) after staining with fluorescein-labelled annexin V and propidium iodide (FITC Annexin V Apoptosis Detection Kit with PI, Biolegend, San Diego, CA). […]

HFL1 lung fibroblasts = test: Apoptosis flow cytometry in lung fibroblasts; type: cell-based; conditions: 10 μg/ml, 48 h
Procedure: FIGS. 21A and 21B show a flow cytometry analysis of HFL1 lung fibroblasts after culturing for 48 h in DMEM medium containing 10 μg/ml corisin. Each had with n=4.
as §2

[5] = tested on: A549 alveolar epithelial cells; test: Transmission electron microscopy of apoptotic cells; type: cell-based, human; conditions: 5 μM, 16 h
Procedure: A549 cells (10×10^4 cells/ml) were plated on a collagen-coated 8-well chamber slides (BD Bioscience, San Jose, CA) and cultured until semi-confluent. Cells were serum-starved for 6 h and stimulated with the pro-apoptotic peptide (5 μM) for 16 h. Cells were fixed with 2% fresh formaldehyde and 2.5% glutaraldehyde in 0.1 M sodium cacodylate buffer (pH 7.4) for 2 h at room temperature. After washing with 0.1 M cacodylate buffer (pH 7.4), they were postfixed with 1% OsO4 in the same buffer for 2 h at 4° C. The samples were rinsed with distilled water, stained with 1% aqueous uranyl acetate for 2 h or overnight at room temperature, dehydrated with ethanol and propylene oxide, and embedded in epon (Epon 812 resin, Nakalai). After removal of the cells from the glass, ultra-thin sections (94 nm) were cut, stained with uranyl acetate and Reynolds's lead citrate, and viewed with a transmission electron microscope (JEM-1010, JEOL, Tokyo, Japan).

IIARESNGQLHARNASGAA (listed as Staphylococcus epidermidis) [reference compound]
apoptosis of alveolar epithelial cells [1]: no pro-apoptotic effect

IVMPESGGNPNAVNPAGYR (listed as Staphylococcus warneri) [1 amino acid change from Staphylococcus nepalensis derivative]
apoptosis of A549 alveolar epithelial cells ([1]; 5 μM peptide, 48 h): induces apoptosis

IVMPESSGNPNAVNPAGYR (listed as Staphylococcus cohnii) [corisin, peptide of 19 amino acid residues, segment of transglycosylase 351 IsaA of Staphylococcus nepalensis strain CNDG]
Akt activation [2]: decreased | cleavage of caspase-3 [2]: increased | apoptosis of epithelial cells in the lungs (TGFβ1 TG mice): enhanced | collagen deposition in the lungs (TGFβ1 TG mice): increased | concentration of inflammatory cytokines and chemokines in the lungs (TGFβ1 TG mice): increased | infiltration of macrophages, lymphocytes and neutrophils in the lungs (TGFβ1 TG mice): significantly increased | apoptotic activity on vascular endothelial cell [3]: no apoptotic activity | pro-apoptotic activity after heating ([1]; 5 μM, incubated at 85° C. for 15 min before adding to A549 cells for 48 h): heat-resistant | apoptosis of alveolar epithelial cells [1]: induces apoptosis of alveolar epithelial cells | apoptotic activity compared with equal protein concentrations of supernatant ([1]; corisin 5 or 10 μg/ml vs supernatant protein 10 or 100 μg/ml, 48 h): significantly more potent | pro-apoptotic effect on A549 cells ([1]; increasing concentrations of synthetic corisin, 48 h, DMEM): recapitulated the pro-apoptotic effect of the staphylococcal isolate supernatant in a dose dependent manner | apoptotic activity on lymphocyte cell line (human Jurkat T cells): no apoptotic activity | apoptosis of normal human bronchial epithelial cells [4]: significantly enhanced apoptosis | apoptotic activity on lung fibroblast (HFL1 lung fibroblasts): no apoptotic activity | apoptotic property by transmission electron micrographs [5]: confirmed the apoptotic property

NRVYNGPAASPVSEGMPIN (listed as Staphylococcus epidermidis) [scrambled peptide, reference compound]
apoptosis of alveolar epithelial cells [1]: not | apoptosis of normal human bronchial epithelial cells [4]: did not

Reference: patent publication US20230357373A1, “METHODS AND COMPOSITIONS FOR […] TREATING FIBROSIS” (Mie University, priority 2019, published 2023)
